Experimental data from patent publication US20160333019A1, “SYNTHESIS AND FORMULATIONS OF PORPHYRIN COMPOUNDS” (Aeolus Sciences, Inc., priority 2013, published 2016).

Experiments:
Assay type in all cases: physicochemical
[1] = Humidity stability of Form I, dynamic vapor sorption and equilibrium water uptake; conditions: equilibrium
Experimental: Dynamic Vapor Sorption (DVS). Samples were analyzed using an […]™ DVS-2 gravimetric water sorption analyzer. The relative humidity was adjusted between 2-95% and the weight of sample was continuously monitored and recorded.
Humidity Stability of Form I. Form I was exposed to a typical relative humidity range that most labs will experience e.g. 15-75% at 25° C. Initially the chamber relative humidity was adjusted at 50%. Then the RH was cycled between 15 to 75% and weight was monitored. FIG. 18 illustrates the changes in weight as a function of relative humidity. If the solid is equilibrated at 50% relative humidity the variation in weight would about ±2 wt % between 15-75% RH. Furthermore, an equilibrium study was performed at various relative humidity environments for extended time. Table 5.6 show the equilibrium % water uptake at various humidity levels.

[2] = Solid form stability: vapor diffusion, drying, grinding, competitive slurry, by XRPD
Experimental: Vapor Diffusion into Solid. Form I was used along with 21 solvent system to evaluate the effect of vapor diffusion on polymorphic behavior. About 2 mL solvent was added to a 20 mL scintillation vial. Furthermore, about 30 mg of solid was added to an open 2 mL HPLC vial and the whole vial was placed inside the bigger vial which contained the solvent. […] Both methanol and ethanol ended up with a mixture of Form I and Form VII. Form I kept its integrity at relative humidity of up to 85% which was generated using saturated potassium chloride.
Drying and Thermal Treatment Studies. A sample was produced using 3 eq. of Mn(III) acetate. The slurry was filtered at ambient without any precautions. The relative humidity of the lab was at 54% at the time of filtration. The wet cake was washed with acetonitrile followed by XRPD analysis which conformed to Form I. The wet cake was dried on a XRPD plate with dome in the over at 40° C., under vacuum for overnight. Then, the sample holder was capped while in the oven followed by XRPD analysis. The resulting solid was a Form III. Then, the cap of the domed holder was opened and allowed the dry solid to be exposed to ambient at RH of 54%.
Wet and Dry Grinding Studies. Form I was ground using mortar and pestle under dry and wet conditions. The solvents in wet grinding were acetonitrile, acetonitrile:water (98:2) and ethyl acetate. […] It should be noted that the grinding was performed under ambient conditions where relative humidity was around 50-60%.
Competitive Slurry Experiments. Mixture of six crystal forms (I, II, III, V, VI and VII) were slurried in three different solvents (acetonitrile acetonitrile:water (98:2) and ethyl acetate), at 25±2° C. for 5 days followed by filtration under nitrogen inert condition. About 20 mg of each polymorph added to the vials. The total weight was […] in each vial and 0.75 mL solvent was added. After filtration, the cake was washed with the same solvent as the one used in the slurry. The cake was placed on a sample holder and sealed using the X-ray transparent dome and analyzed using XRPD. The cap was then removed and solid was dried at 45° C. and under vacuum for half a day. The dry sample was then sealed under nitrogen inert environment and analyzed by XRPD. The next step was to expose the dry sample to about 50% relative humidity for 30 minutes followed by XRPD analysis. In the case of acetonitrile, the wet cake was a new pattern designated as Form IV. In acetonitrile:water (98:2), the resulting solid was low crystalline Form I. It seemed that 2 vol % water was not enough to result in a crystalline hydrate. In the case of ethyl acetate, the solid was also low crystalline Form I plus a few extra peaks. The water in starting Form I could have been enough to result in a low crystalline Form I with some extra peaks of the starting forms in hydrophobic ethyl acetate. This was not observed in neat acetonitrile due to affinity of this solvent for water. […] Theoretically, the same water quantity in ethyl acetate results in higher water activity than in acetonitrile.
Form II is the wet cake out of reaction mixture unexposed to moisture. Section 3.3.2.3 (reactive crystallization) describes the procedure of making Form II. FIG. 15 illustrates the XRPD of Form II. For XRPD analysis, a silicon plate with dome was used to prevent exposure to ambient. Form III is the result of drying of any of the solid forms. […] Due to instability, some peaks might be shifted if the same sample is repeated multiple times. FIG. 16 illustrates the XRPD of Form III. For XRPD analysis, a silicon plate with dome was used to prevent exposure to ambient. Form IV is the wet cake from slurrying all the solid forms in acetonitrile for at least 5 days and at room temperature. This form is unstable and upon exposure to moisture, it converts to Form I. FIG. 17 illustrates the XRPD of Form IV. For XRPD analysis, a silicon plate with dome was used to prevent exposure to ambient. […]

[3] = Air oxidation of the Mn(II) form
Experimental: Without being bound to any particular theory, the chemistry occurring when the pH of the 75 mg/mL solution rises from 4 to 9 over the 16-24 hour period may result from the presence of different oxidation states of Mn(II) and (III).
One proton is consumed per one molecule of Mn (II) porphyrin complex in the oxidation process. In the absence of acid (for example in WFI water) the oxidation process is expected to be slower and generates hydroxyl-ions: […]

For `CCn1cc[n+](CC)c1-c1c2nc(c(-c3n(CC)cc[n+]3CC)c3ccc([n-]3)c(-c3n(CC)cc[n+]3CC)c3nc(c(-c4n(CC)cc[n+]4CC)c4ccc1[n-]4)C=C3)C=C2.O.[Cl-].[Cl-].[Cl-].[Cl-].[Cl-].[Mn+3]` [Form I, [5,10,15,20-tetrakis(1,3-diethylimidazolium-2-yl)porphyrinato]manganese(III) chloride hydrate complex], the “% water uptake” value ([1]; relative humidity 20 %) was 13.50%, the “% water uptake” value ([1]; relative humidity 40 %) was 15.01% and the “% water uptake” value ([1]; relative humidity 75 %) was 16.83%. For the same molecule, the “% water uptake” value ([1]; relative humidity 80 %) was 19.06%, the “stability of crystal form” value ([2]; ambient conditions and relative humidity as low as 15%) was “stable” and the “relative stability among crystal forms” value ([2]; competitive slurry of forms I, II, III, V, VI and VII, exposure to moisture) was “most stable crystal form”. For the same molecule, the “stability under grinding conditions” value ([2]; dry and wet grinding, mortar and pestle, ambient, relative humidity 50-60%) was “pretty stable” and the “relative humidity up to which the form kept its integrity” value ([2]; vapor diffusion, 6 days exposure, saturated potassium chloride) was “up to 85%”.

For `CCn1cc[n+](CC)c1-c1c2nc(c(-c3n(CC)cc[n+]3CC)c3ccc([n-]3)c(-c3n(CC)cc[n+]3CC)c3nc(c(-c4n(CC)cc[n+]4CC)c4ccc1[n-]4)C=C3)C=C2.O.[Cl-].[Cl-].[Cl-].[Cl-].[Cl-].[Mn+3]` [Form III, [5,10,15,20-tetrakis(1,3-diethylimidazolium-2-yl)porphyrinato]manganese(III) chloride hydrate complex], the “% water uptake” value ([1]; relative humidity 2 %) was 0.00%, the “stability of crystal form upon exposure to moisture” value [2] was “unstable and rapidly converts to Form I” and the “time to full conversion to Form I” value ([2]; dry solid exposed to ambient at RH of 54%) was “less than half an hour”.

With `CCn1cc[n+](CC)c1-c1c2nc(c(-c3n(CC)cc[n+]3CC)c3ccc([n-]3)c(-c3n(CC)cc[n+]3CC)c3nc(c(-c4n(CC)cc[n+]4CC)c4ccc1[n-]4)C=C3)C=C2.[Mn+2]` [Mn(II) form] the “half-life of oxidation by air” value ([3]; aqueous solution containing 0.1% TFA) was 5 to 7 min and the stability in air ([3]; solid state) was “relatively stable”.

In the case of “[5,10,15,20-tetrakis(1,3-diethylimidazolium-2-yl)porphyrinato]manganese(III) chloride hydrate complex [Form IV]”, the “stability of crystal form upon exposure to moisture” value [2] is reported as “unstable”.
